A short description of assay [1]: cells. The assay is classed as functional, cell-based.
The target in assay [2] is T1, Trace amine-associated receptor 1 (Homo sapiens, UniProt Q96RJ0).
T1 sequence (Q96RJ0 whole entry): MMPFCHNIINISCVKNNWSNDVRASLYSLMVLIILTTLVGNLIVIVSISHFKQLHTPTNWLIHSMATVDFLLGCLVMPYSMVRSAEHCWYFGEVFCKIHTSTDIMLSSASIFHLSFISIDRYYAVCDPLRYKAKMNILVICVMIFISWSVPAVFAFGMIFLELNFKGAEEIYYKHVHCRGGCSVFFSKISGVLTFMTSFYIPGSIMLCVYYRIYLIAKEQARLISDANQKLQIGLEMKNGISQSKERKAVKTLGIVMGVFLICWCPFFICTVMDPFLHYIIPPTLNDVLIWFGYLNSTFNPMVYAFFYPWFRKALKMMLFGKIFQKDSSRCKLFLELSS
The assay is described as follows: Fluorescence-based cell-based high throughput dose response assay to identify agonists of the human trace amine associated receptor 1 (TAAR1). The assay is classed as functional.

The target of assay [3] is T1, Trace amine-associated receptor 1. The assay is described as follows: Counterscreen for agonists of the human trace amine associated receptor 1 (hTAAR1): Fluorescence-based cell-based high throughput dose response assay to identify hTAAR1 agonist that also desensitize TAAR1 receptor response. The assay is classed as functional. (Counterscreens check selectivity or assay interference.)

A short description of assay [4]: cells. The assay is classed as functional, cell-based. The source holds these as a separate data set.
The nature of assay [5]: HeLa cell cytotoxicity, dose response, cytotoxicity control for MgcRacGAP inhibitor project (AID 624300). It is filed as functional.
The target of assay [6] is T2, Rac GTPase-activating protein 1 (Homo sapiens, UniProt Q9H0H5).
T2 sequence (Q9H0H5 whole entry): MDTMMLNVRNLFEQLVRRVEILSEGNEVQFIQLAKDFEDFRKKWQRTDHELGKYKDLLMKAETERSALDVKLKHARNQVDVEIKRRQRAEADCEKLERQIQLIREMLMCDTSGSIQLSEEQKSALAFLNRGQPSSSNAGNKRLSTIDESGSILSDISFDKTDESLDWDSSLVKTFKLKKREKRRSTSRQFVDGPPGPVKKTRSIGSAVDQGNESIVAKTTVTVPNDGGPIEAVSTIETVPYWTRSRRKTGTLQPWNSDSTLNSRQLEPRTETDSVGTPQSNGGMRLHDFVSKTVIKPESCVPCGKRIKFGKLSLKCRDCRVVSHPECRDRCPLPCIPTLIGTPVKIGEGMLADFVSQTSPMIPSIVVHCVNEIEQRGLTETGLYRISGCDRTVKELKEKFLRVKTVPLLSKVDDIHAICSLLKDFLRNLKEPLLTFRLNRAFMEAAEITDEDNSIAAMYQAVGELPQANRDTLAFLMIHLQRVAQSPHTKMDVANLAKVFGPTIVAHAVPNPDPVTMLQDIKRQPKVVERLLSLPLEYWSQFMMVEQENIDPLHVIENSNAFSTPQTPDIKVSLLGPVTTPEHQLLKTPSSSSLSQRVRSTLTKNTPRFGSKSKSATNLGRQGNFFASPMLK
Kind of assay: MgcRacGAP GTPase-activating activity inhibitors, confirmation, biochemical, ADP Hunter fluorescence, primary and confirmatory (AID 624330). The assay is classed as functional.

For assay [7], the target named is Paired box protein Pax-8 (Homo sapiens, UniProt Q06710). Kind of assay: inhibitors of PAX8-driven TPO luciferase reporter, dose response, RMG-I cells, cherry-pick (AID 687027).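 Note: luciferase reporter driven by Pax8 target thyroperoxidase promoter measured by SteadyGlo luminescence.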 The assay is classed as functional, cell-based. Background: In a reporter assay the amount or activity of a reporter protein is the signal.
Paired box protein Pax-8, sequence (Q06710 whole entry): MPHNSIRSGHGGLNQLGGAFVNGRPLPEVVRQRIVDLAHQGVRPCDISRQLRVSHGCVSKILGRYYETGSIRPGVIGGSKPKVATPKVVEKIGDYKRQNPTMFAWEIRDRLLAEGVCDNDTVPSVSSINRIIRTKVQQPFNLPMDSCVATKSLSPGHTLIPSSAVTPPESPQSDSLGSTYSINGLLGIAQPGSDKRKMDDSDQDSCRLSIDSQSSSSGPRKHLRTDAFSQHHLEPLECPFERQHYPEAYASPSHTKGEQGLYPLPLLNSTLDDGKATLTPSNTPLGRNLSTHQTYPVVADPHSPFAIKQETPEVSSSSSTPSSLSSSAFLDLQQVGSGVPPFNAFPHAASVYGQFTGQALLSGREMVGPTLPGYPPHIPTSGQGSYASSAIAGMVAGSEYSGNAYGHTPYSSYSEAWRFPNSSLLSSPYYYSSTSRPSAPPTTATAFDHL
Assay [8] can be described thus: non-specific cell cytotoxicity, dose response, cytotoxicity control for PAX8 inhibitor project, plate reader, dry powder samples (AID 743021). It is filed as functional, cell-based.
Assay [9] has as its system INS1. Kind of assay: beta cell apoptosis inhibitors, cytokine rescue, dose response, luminescence, retest (AID 449756).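 Note: cell death triggered by IL-1 beta plus TNF-alpha plus IFN-gamma mixture; protective hits raise ATP signal compared with cytokine alone wells.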 The settings on record: Rattus norvegicus. The assay is classed as functional, cell-based.
The target in assay [10] is Nonstructural protein 1 (Influenza A virus, UniProt Q194T2). It is filed as functional, Influenza A virus (A/California/07/2009(H1N1)).
Nonstructural protein 1, sequence (Q194T2 whole entry): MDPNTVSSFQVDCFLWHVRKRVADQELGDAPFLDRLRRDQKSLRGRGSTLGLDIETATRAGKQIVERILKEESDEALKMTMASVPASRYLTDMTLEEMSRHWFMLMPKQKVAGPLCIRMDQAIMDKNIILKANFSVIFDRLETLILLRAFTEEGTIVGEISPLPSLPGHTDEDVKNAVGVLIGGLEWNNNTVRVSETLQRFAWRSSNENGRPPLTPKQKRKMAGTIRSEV
Assay [11] deals with T3, fMet-Leu-Phe receptor (Homo sapiens, UniProt P21462).
T3 sequence (P21462 whole entry): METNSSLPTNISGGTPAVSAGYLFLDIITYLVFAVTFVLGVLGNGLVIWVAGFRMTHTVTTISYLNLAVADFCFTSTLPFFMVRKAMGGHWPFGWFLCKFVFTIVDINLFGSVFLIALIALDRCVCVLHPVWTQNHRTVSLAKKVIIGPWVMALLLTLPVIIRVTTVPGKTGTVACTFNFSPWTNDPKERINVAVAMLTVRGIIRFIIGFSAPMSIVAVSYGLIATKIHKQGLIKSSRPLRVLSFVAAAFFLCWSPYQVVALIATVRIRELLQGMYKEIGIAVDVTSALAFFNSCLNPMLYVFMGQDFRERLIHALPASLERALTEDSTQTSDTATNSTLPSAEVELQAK
Kind of assay: FPR ligands, dose response (AID 519). It is filed as functional.

Assay [12] addresses Cytochrome P450 2D6 (Homo sapiens, UniProt P10635).
Assay [13] addresses T4, Sentrin-specific protease 8 (Homo sapiens, UniProt Q96LD8).
T4 sequence (Q96LD8 whole entry): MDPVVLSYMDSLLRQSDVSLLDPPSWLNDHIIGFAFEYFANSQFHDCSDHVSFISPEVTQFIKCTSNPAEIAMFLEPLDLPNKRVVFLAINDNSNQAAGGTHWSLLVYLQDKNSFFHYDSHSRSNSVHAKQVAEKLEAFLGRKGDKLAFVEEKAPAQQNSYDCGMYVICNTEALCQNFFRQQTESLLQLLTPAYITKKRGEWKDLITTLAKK
The assay is classed as functional.

For assay [14], the target named is T5, Cytochrome P450 1A2 (Homo sapiens, UniProt P05177).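 Note: PubChem cytochrome P450 panel assay, CYP1A2 panel member.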
T5 sequence (P05177 whole entry): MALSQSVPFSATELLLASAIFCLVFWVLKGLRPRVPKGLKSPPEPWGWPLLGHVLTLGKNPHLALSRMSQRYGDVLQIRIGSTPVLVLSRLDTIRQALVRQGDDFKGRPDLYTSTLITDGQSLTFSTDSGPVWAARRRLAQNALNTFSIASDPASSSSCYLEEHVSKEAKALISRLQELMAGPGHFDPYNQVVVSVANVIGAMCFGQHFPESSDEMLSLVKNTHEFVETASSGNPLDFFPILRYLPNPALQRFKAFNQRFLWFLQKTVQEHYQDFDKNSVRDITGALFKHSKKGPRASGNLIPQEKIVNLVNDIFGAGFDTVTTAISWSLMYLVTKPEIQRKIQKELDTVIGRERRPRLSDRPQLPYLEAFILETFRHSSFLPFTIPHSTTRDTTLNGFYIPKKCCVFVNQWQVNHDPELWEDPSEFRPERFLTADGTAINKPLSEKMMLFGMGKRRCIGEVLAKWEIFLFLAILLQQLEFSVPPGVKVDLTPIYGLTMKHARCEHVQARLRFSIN

For assay [15], the target named is T6, Replicative DNA helicase DnaB (Mycobacterium tuberculosis, UniProt P9WMR3).
T6 sequence (P9WMR3 whole entry): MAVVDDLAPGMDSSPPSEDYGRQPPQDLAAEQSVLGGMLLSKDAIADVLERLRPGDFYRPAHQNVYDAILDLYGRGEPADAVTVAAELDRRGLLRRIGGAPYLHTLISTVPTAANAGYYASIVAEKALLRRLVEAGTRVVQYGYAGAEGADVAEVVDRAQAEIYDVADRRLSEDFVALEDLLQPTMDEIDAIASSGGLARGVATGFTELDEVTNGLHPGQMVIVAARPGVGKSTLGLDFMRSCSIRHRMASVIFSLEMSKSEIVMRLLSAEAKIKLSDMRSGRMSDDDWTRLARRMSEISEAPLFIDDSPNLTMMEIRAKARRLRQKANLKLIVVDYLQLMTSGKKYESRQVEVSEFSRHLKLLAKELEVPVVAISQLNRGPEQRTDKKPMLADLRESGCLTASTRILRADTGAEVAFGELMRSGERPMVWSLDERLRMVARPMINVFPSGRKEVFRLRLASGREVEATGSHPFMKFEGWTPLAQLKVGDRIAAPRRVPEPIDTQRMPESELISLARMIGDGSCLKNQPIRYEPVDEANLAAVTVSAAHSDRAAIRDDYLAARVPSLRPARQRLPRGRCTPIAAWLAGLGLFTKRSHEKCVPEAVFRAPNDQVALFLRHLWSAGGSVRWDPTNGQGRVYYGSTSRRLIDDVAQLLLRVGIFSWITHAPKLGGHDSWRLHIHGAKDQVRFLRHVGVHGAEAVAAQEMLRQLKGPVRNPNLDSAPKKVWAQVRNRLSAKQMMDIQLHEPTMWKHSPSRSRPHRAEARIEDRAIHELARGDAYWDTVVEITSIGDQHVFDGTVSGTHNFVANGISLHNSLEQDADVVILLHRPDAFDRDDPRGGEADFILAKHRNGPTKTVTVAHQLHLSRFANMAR
The assay is described as follows: DnaB intein splicing inhibitors, dose response, biochemical, cell-free fluorescence (AID 449749). The assay is classed as functional.

The target in assay [16] is T4, Sentrin-specific protease 8. It is filed as functional. The source holds these as a separate data set.
Assay [17] concerns the target T7, Protein RecA (Mycobacterium tuberculosis, UniProt P9WHJ3).
T7 sequence (P9WHJ3 whole entry): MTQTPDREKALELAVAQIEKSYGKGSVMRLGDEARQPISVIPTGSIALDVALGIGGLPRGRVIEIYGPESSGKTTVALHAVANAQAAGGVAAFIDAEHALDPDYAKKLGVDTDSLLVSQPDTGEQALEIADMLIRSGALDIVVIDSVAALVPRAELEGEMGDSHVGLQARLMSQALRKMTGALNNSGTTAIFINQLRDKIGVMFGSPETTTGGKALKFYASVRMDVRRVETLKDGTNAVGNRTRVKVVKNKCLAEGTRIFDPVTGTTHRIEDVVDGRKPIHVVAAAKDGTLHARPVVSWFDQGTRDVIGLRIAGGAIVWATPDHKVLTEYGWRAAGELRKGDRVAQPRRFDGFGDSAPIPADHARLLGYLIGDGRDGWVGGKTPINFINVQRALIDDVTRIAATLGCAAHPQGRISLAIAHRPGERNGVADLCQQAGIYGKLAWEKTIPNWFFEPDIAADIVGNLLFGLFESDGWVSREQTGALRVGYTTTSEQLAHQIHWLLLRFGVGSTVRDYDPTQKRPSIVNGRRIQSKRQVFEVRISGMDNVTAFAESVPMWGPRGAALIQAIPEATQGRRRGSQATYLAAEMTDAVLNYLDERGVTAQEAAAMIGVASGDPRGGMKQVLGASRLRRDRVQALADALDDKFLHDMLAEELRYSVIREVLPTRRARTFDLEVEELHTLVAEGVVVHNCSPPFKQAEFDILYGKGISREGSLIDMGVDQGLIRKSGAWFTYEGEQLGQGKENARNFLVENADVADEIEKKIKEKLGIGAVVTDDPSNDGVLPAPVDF
The assay is described as follows: Fluorescence Cell-Free Homogeneous Dose Retest to Identify Inhibitors of RecA-Intein Splicing Activity. [Related pubchem assays (depositor defined):AID2097, AID2223, AID489010, AID492950]. It is filed as functional.

Assay [18] deals with Genome polyprotein (dengue virus type 2, UniProt P29990). Kind of assay: Dengue-2 NS5 methyltransferase inhibitors, primary screen, biochemical, confirmation dose response (AID 588689). The assay is classed as functional.
Genome polyprotein, sequence (P29990 2492-3391 limits assumed): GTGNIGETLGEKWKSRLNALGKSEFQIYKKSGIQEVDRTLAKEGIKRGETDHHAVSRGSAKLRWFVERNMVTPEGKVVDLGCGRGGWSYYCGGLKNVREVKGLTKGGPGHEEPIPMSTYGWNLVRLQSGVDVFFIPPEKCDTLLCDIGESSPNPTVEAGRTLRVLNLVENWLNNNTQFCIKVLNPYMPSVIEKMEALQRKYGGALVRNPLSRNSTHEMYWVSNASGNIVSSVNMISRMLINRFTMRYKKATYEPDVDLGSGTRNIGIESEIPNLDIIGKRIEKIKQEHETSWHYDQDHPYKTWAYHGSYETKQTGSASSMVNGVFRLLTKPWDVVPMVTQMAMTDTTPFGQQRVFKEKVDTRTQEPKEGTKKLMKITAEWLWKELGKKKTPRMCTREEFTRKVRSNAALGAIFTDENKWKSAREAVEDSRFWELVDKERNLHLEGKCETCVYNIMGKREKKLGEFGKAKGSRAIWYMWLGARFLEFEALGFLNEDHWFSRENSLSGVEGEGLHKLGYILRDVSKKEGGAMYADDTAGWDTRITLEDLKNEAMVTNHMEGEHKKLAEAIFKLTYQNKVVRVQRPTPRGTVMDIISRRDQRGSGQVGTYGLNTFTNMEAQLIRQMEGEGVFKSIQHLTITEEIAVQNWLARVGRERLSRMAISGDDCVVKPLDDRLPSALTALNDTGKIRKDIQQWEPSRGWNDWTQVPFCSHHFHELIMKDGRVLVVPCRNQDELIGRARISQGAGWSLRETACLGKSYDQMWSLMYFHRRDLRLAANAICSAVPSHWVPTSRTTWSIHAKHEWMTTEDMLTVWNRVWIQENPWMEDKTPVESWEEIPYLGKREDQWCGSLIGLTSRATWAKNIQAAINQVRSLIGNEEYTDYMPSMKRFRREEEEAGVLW

The structures appear in SMILES notation. Calls of active or inactive are those of the source. Bounds are passed on as bounds.

Cytochrome P450 2D6, sequence (P10635 whole entry): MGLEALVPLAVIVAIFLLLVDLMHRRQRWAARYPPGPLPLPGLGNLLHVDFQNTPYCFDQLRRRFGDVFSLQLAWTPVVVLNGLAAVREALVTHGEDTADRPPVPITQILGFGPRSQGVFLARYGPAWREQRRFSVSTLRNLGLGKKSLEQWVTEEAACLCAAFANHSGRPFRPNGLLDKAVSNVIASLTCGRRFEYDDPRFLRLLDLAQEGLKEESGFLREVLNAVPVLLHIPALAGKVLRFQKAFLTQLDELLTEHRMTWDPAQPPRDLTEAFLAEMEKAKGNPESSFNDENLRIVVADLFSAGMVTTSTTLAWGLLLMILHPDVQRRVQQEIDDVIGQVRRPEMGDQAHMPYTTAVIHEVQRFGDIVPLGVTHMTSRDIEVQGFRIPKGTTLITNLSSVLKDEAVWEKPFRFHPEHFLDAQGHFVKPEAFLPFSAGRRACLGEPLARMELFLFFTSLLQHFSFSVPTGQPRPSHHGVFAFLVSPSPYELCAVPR

The IC50 is the point on the concentration scale where inhibition reaches its midpoint. Broadly, the EC50 is the concentration that produces a half-maximal response. In the case of `Cc1ccn2c(CNCC3OCCc4ccccc43)c(C(=O)N3CCCCCC3)nc2c1` (centres undefined), the IC50 in assay [1] was > 29.9 µM (inactive); in assay [3], 9.37 µM (active). In addition, the values for the concentration for a half-maximal effect (EC50) in assay [2] and in assay [4] were 4.98 µM (active) and > 29.9 µM (inactive), respectively.
One may read the CC50 as the concentration at which the toxic effect on the cells reaches its halfway point. As for `COc1ccccc1-n1c(/C=C/c2ccc(O)cc2)nc2ccccc2c1=O`, the CC50 in assay [5] was 100 µM (active). Further, in assay [6], the IC50 was 106 µM (active).
One may read the AC50 as the concentration at which the activity in the assay is half-maximal. `O=C(Nc1ccc(C(F)(F)F)cc1)N1C[C@@H]2N[C@H](C1)[C@H]2c1ccc(-c2cccc(F)c2)cc1`: the AC50 in [7] is 13.2 µM (active); in [8], 27.9 µM (active).
Regarding `COc1cc(N/N=C/c2ccccc2O)ncn1`, in assay [9], the AC50 was 3.67 µM (active). Besides, the IC50 in [10] was 5.73 µM (active); in assay [1], > 29.9 µM (inactive); in [3], 6.63 µM (active). The EC50 in assay [2] and in assay [4] was > 29.9 µM (inactive) throughout.
For `O=C(O)/C=C/C(=O)NCCCc1ccccc1`, the IC50 in assay [1] and in assay [3] was > 29.9 µM (inactive) in each case. Besides, the EC50 in [2] was 7.06 µM (active); in [4] it was > 29.9 µM (inactive).
For orientation: Ki means the equilibrium dissociation constant of an inhibitor or competing ligand from its target. As to `CC1=C(C#N)C(c2ccc3ncccc3c2)C(C#N)=C(C)N1`, the Ki in [11] is > 66.7 µM (inactive).
Regarding `Cc1nn(-c2ccc(F)cc2)c(O)c1C(c1cccc(O)c1)c1c(C)[nH]n(-c2ccc(F)cc2)c1=O` (centres undefined), the AC50 was 28.2 µM (inconclusive) in assay [12], 25.1 µM (inconclusive) in [14] and 1.06 µM (active) in assay [15]. Besides, the IC50 in assay [13] was 12.2 µM (active); in assay [16], 14.6 µM (active); in [18], 55.5 µM (active). Moreover, the EC50 in assay [17] is 0.856 µM (active).
For the compound `CCOC(=O)c1c(C)[nH]c(/C=N/c2ccccc2)c1O`, in assay [11], the Ki was > 66.7 µM (inactive).
`Oc1ccc(-c2[nH]ncc2-c2ccc(Cl)cc2)c(O)c1`: the CC50 in assay [5] was 100 µM (active). In addition, the IC50 in [6] is 90.8 µM (active).

For the origin of these results see ChEMBL document CHEMBL1201862, “PubChem BioAssay data set” (2004).
